# Measurements from ChEMBL document CHEMBL1201862, “PubChem BioAssay data set” (2004).
#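 Cultured in 96-well plates, cells were exposed to test compound for 48 hours across five concentrations. GI50: concentration for 50% inhibition of growth.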 Calls of active or inactive are those of the source. Cut-off read from the data, not from the text of the source: active = GI50 up to about 1.1 µM and inactive = higher.
# Assays:
# Assay in all cases: DTP human tumour cell line panel, 48 h
# [1] = test system: MOLT-4
# [2] = test system: HCT-15
# [3] = test system: M19-MEL
# [4] = test system: M14
# [5] = test system: CCRF-CEM
# [6] = test system: SNB-75
# [7] = test system: OVCAR-5
# [8] = test system: K562
# [9] = test system: EKVX
# [10] = test system: UACC-257
# [11] = test system: HOP-92
# [12] = test system: HL-60
# [13] = test system: A498
# [14] = test system: COLO 205
# [15] = test system: DU-145
# [16] = test system: MCF7
# [17] = test system: MDA-MB-231
# [18] = test system: T47D
# [19] = test system: NCI/ADR-RES
# [20] = test system: PC-3
SMILES,GI50 [1],GI50 [2],GI50 [3],GI50 [4],GI50 [5],GI50 [6],GI50 [7],GI50 [8],GI50 [9],GI50 [10],GI50 [11],GI50 [12],GI50 [13],GI50 [14],GI50 [15],GI50 [16],GI50 [17],GI50 [18],GI50 [19],GI50 [20]
CN(C)CCNC(=O)c1cccc2c1nc(-c1ccncc1)c1ccccc12,0.0316 µM (active),1.99 µM,2.82 µM (inactive),4.83 µM (inactive),2.4 µM (inactive),3.36 µM (inactive),4.88 µM (inactive),3.14 µM (inactive),2.47 µM (inactive),3.01 µM (inactive),2.09 µM (inactive),1.36 µM (inactive),1.15 µM (inactive),1.61 µM (inactive),,,,,,
CCCN1CC=CCC1,> 100 µM (inactive),> 100 µM,> 100 µM (inactive),> 100 µM (inactive),2.09 µM (inactive),> 100 µM (inactive),> 100 µM (inactive),< 0.01 µM (active),> 100 µM (inactive),> 100 µM (inactive),> 100 µM (inactive),> 100 µM (inactive),> 100 µM (inactive),> 100 µM (inactive),,,,,,
CC1=NN(c2ccccc2)C(=O)C1=C1SCCS1,15 µM (inactive),40.9 µM,41.8 µM (inactive),> 79.4 µM (inactive),29.2 µM (inactive),> 88.1 µM (inactive),> 100 µM (inactive),43.6 µM (inactive),47.5 µM (inactive),> 74.6 µM (inactive),37 µM (inactive),> 40 µM (inactive),> 77.1 µM (inactive),25.1 µM (inactive),,,,,,
CCOP(=O)(OCC)C(C(=O)OC)C(=O)C(=O)Nc1c(C)cc(Br)cc1C (configuration not stated),> 100 µM (inactive),> 100 µM,> 100 µM (inactive),> 100 µM (inactive),> 100 µM (inactive),> 100 µM (inactive),> 100 µM (inactive),> 100 µM (inactive),> 100 µM (inactive),> 100 µM (inactive),> 100 µM (inactive),> 100 µM (inactive),> 100 µM (inactive),> 100 µM (inactive),,,,,,
Cc1cc(Cl)ccc1NC(=O)C(=O)Cc1occc(=O)c1O,> 100 µM (inactive),> 100 µM,> 100 µM (inactive),> 100 µM (inactive),> 100 µM (inactive),> 100 µM (inactive),> 100 µM (inactive),> 100 µM (inactive),> 100 µM (inactive),> 100 µM (inactive),> 100 µM (inactive),> 100 µM (inactive),> 100 µM (inactive),> 100 µM (inactive),,,,,,
CCOc1ccc2c(c1)[n+]([O-])c(S(=O)(=O)c1ccc(C)cc1)c(N)[n+]2[O-],> 100 µM (inactive),,> 100 µM (inactive),> 100 µM (inactive),> 100 µM (inactive),91.6 µM (inactive),> 100 µM (inactive),> 100 µM (inactive),> 100 µM (inactive),> 100 µM (inactive),> 100 µM (inactive),> 100 µM (inactive),> 100 µM (inactive),> 100 µM (inactive),,,,,,
Cc1c(C(=O)/C=C/c2ccco2)[n+]([O-])c2ccccc2[n+]1[O-],39.6 µM (inactive),,> 100 µM (inactive),> 100 µM (inactive),36.1 µM (inactive),> 100 µM (inactive),> 100 µM (inactive),56.4 µM (inactive),> 100 µM (inactive),> 100 µM (inactive),45.4 µM (inactive),42 µM (inactive),> 100 µM (inactive),> 100 µM (inactive),,,,,,
Cc1cc(N(CCC#N)CCC#N)ccc1/C=C1N=C(/C=C/c2ccccc2)N(c2ccc(S(N)(=O)=O)cc2)C\1=O,> 100 µM (inactive),> 100 µM,> 100 µM (inactive),> 100 µM (inactive),> 100 µM (inactive),> 100 µM (inactive),> 100 µM (inactive),> 100 µM (inactive),,> 100 µM (inactive),> 100 µM (inactive),> 100 µM (inactive),> 100 µM (inactive),> 100 µM (inactive),,,,,,
COC(=O)C(=O)C(C(C)=O)C(=O)NCc1ccccc1 (configuration not stated),> 100 µM (inactive),> 100 µM,> 100 µM (inactive),> 100 µM (inactive),83.2 µM (inactive),> 100 µM (inactive),> 100 µM (inactive),> 100 µM (inactive),> 100 µM (inactive),> 100 µM (inactive),> 100 µM (inactive),> 100 µM (inactive),> 100 µM (inactive),> 100 µM (inactive),,,,,,
CCc1cccc(C(C)CC)c1NC(=O)C(=O)Cc1nc2ccccc2o1 (configuration not stated),> 34.5 µM (inactive),> 50 µM,> 50 µM (inactive),> 50 µM (inactive),> 50 µM (inactive),> 50 µM (inactive),> 43.8 µM (inactive),> 50 µM (inactive),> 50 µM (inactive),> 50 µM (inactive),> 50 µM (inactive),> 50 µM (inactive),> 50 µM (inactive),> 50 µM (inactive),,,,,,
CCC1CN2CCc3c([nH]c4ccccc34)C2C[C@@H]1CC(=O)N(C)C (some centres not stated),> 100 µM (inactive),> 100 µM,> 100 µM (inactive),> 100 µM (inactive),> 100 µM (inactive),21.4 µM (inactive),> 100 µM (inactive),> 100 µM (inactive),> 100 µM (inactive),> 100 µM (inactive),51.6 µM (inactive),> 100 µM (inactive),> 100 µM (inactive),> 100 µM (inactive),,,,,,
COc1ccc2oc3c4c2c1CCC4CCC3=O (configuration not stated),52.8 µM (inactive),,> 100 µM (inactive),> 100 µM (inactive),> 100 µM (inactive),28.1 µM (inactive),> 100 µM (inactive),> 100 µM (inactive),> 100 µM (inactive),16.8 µM (inactive),55.7 µM (inactive),> 100 µM (inactive),6.75 µM (inactive),> 100 µM (inactive),,,,,,
O=C1C(Cl)=C(N2CCN(C3=C(Cl)C(=O)c4ccccc4C3=O)CC2)C(=O)c2ccccc21,0.232 µM (active),1.61 µM,1.53 µM (inactive),1.53 µM (inactive),0.162 µM (active),2.86 µM (inactive),6.64 µM (inactive),0.121 µM (active),1.79 µM (inactive),1.46 µM (inactive),1.04 µM (active),0.0841 µM (active),3.49 µM (inactive),1.69 µM (inactive),4.91 µM (inactive),1.72 µM (inactive),1.64 µM (inactive),729 nM (active),1.92 µM (inactive),7.31 µM (inactive)
O=C(Cc1ccccc1)N/N=C(\C1=Nc2ccc([N+](=O)[O-])cc2NC1O)C(O)c1ccc([N+](=O)[O-])cc1 (configuration not stated),,> 100 µM,> 100 µM (inactive),30.8 µM (inactive),13.8 µM (inactive),> 100 µM (inactive),> 100 µM (inactive),28.2 µM (inactive),> 100 µM (inactive),> 100 µM (inactive),> 100 µM (inactive),19.9 µM (inactive),> 100 µM (inactive),64.1 µM (inactive),,,,,,
COc1ccc2c(NCCCCCCNc3c4ccccc4nc4cc(OC)ccc34)c3ccccc3nc2c1,0.0146 µM (active),1.29 µM,0.0484 µM (active),0.48 µM (active),0.0447 µM (active),0.175 µM (active),0.186 µM (active),0.0334 µM (active),0.579 µM (active),0.731 µM (active),0.1 µM (active),0.0923 µM (active),0.516 µM (active),0.0753 µM (active),0.204 µM (active),0.0475 µM (active),0.067 µM (active),421 nM (active),2.72 µM (inactive),0.0885 µM (active)
C#CCN(N=O)C(=O)NC(CCCCNC(=O)OCc1ccccc1)C(=O)OCc1ccccc1 (configuration not stated),16.8 µM (inactive),20.8 µM,34.2 µM (inactive),21.4 µM (inactive),17.5 µM (inactive),33.5 µM (inactive),24.5 µM (inactive),20.5 µM (inactive),22.7 µM (inactive),28.1 µM (inactive),15.7 µM (inactive),17.3 µM (inactive),> 100 µM (inactive),28.5 µM (inactive),,,,,,
COc1ccc(/C=C\c2cc(OC)c3c(c2)OCO3)c(O)c1O,6.35 µM (inactive),11 µM,6.19 µM (inactive),3.56 µM (inactive),2.98 µM (inactive),0.0256 µM (active),26.7 µM (inactive),4.14 µM (inactive),11.7 µM (inactive),14.1 µM (inactive),5.55 µM (inactive),2.8 µM (inactive),8.3 µM (inactive),21.2 µM (inactive),,,,,,
Cc1ccc(C(=O)N(C(C)C)C(C)C)cc1/N=N/N(C)C,45.3 µM (inactive),> 82.6 µM,> 100 µM (inactive),> 100 µM (inactive),> 10 µM (inactive),,> 100 µM (inactive),38.8 µM (inactive),> 100 µM (inactive),57.4 µM (inactive),> 64.6 µM (inactive),29.7 µM (inactive),,> 100 µM (inactive),> 100 µM (inactive),> 100 µM (inactive),> 100 µM (inactive),39400 nM (inactive),> 100 µM (inactive),> 100 µM (inactive)
Cc1ccc(Oc2ccc(C)cc2N)cc1,53 µM (inactive),48.5 µM,> 100 µM (inactive),> 100 µM (inactive),41.6 µM (inactive),16.5 µM (inactive),68.4 µM (inactive),60.8 µM (inactive),71 µM (inactive),80.9 µM (inactive),32.3 µM (inactive),33.9 µM (inactive),> 100 µM (inactive),> 100 µM (inactive),,,,,,
